{"source": "the NIST ThermoML archive (doi:10.1021/acs.jced.6b00766)", "test": "mn = molality of the nth substance listed, in mol/kg", "settings": "101.3 kPa, Liquid; for viscosity: Capillary tube (Ostwald / Ubbelohde) method; for mass density: Vibrating tube method", "note": "± gives the expanded uncertainty stated by the source."}
{"smiles": "OC[C@@H](O)[C@H](O)[C@@H](O)CO", "note": "[xylitol] + O", "values": [{"measurement": "viscosity", "setting": "293.15 K, m1 = 0.2", "result": "1.079 ± 0.013", "unit": "mPa·s"}, {"measurement": "viscosity", "setting": "293.15 K, m1 = 0.4", "result": "1.161 ± 0.014", "unit": "mPa·s"}, {"measurement": "viscosity", "setting": "293.15 K, m1 = 0.6", "result": "1.25 ± 0.016", "unit": "mPa·s"}, {"measurement": "viscosity", "setting": "293.15 K, m1 = 0.8", "result": "1.348 ± 0.018", "unit": "mPa·s"}, {"measurement": "viscosity", "setting": "293.15 K, m1 = 1", "result": "1.443 ± 0.019", "unit": "mPa·s"}, {"measurement": "mass density", "setting": "293.15 K, m1 = 0.2", "result": "1008.15 ± 0.28", "unit": "kg/m3"}, {"measurement": "mass density", "setting": "293.15 K, m1 = 0.4", "result": "1017.64 ± 0.42", "unit": "kg/m3"}, {"measurement": "mass density", "setting": "293.15 K, m1 = 0.6", "result": "1026.71 ± 0.57", "unit": "kg/m3"}, {"measurement": "mass density", "setting": "293.15 K, m1 = 0.8", "result": "1035.41 ± 0.71", "unit": "kg/m3"}, {"measurement": "mass density", "setting": "293.15 K, m1 = 1", "result": "1043.78 ± 0.86", "unit": "kg/m3"}, {"measurement": "viscosity", "setting": "303.15 K, m1 = 0.2", "result": "0.855 ± 0.01", "unit": "mPa·s"}, {"measurement": "viscosity", "setting": "303.15 K, m1 = 0.4", "result": "0.916 ± 0.011", "unit": "mPa·s"}, {"measurement": "viscosity", "setting": "303.15 K, m1 = 0.6", "result": "0.981 ± 0.012", "unit": "mPa·s"}, {"measurement": "viscosity", "setting": "303.15 K, m1 = 0.8", "result": "1.059 ± 0.014", "unit": "mPa·s"}, {"measurement": "viscosity", "setting": "303.15 K, m1 = 1", "result": "1.128 ± 0.017", "unit": "mPa·s"}, {"measurement": "mass density", "setting": "303.15 K, m1 = 0.2", "result": "1005.42 ± 0.28", "unit": "kg/m3"}, {"measurement": "mass density", "setting": "303.15 K, m1 = 0.4", "result": "1014.74 ± 0.42", "unit": "kg/m3"}, {"measurement": "mass density", "setting": "303.15 K, m1 = 0.6", "result": "1023.67 ± 0.56", "unit": "kg/m3"}, {"measurement": "mass density", "setting": "303.15 K, m1 = 0.8", "result": "1032.22 ± 0.7", "unit": "kg/m3"}, {"measurement": "mass density", "setting": "303.15 K, m1 = 1", "result": "1040.41 ± 0.82", "unit": "kg/m3"}, {"measurement": "viscosity", "setting": "313.15 K, m1 = 0.2", "result": "0.697 ± 0.008", "unit": "mPa·s"}, {"measurement": "viscosity", "setting": "313.15 K, m1 = 0.4", "result": "0.744 ± 0.009", "unit": "mPa·s"}, {"measurement": "viscosity", "setting": "313.15 K, m1 = 0.6", "result": "0.794 ± 0.01", "unit": "mPa·s"}, {"measurement": "viscosity", "setting": "313.15 K, m1 = 0.8", "result": "0.851 ± 0.011", "unit": "mPa·s"}, {"measurement": "viscosity", "setting": "313.15 K, m1 = 1", "result": "0.904 ± 0.013", "unit": "mPa·s"}, {"measurement": "mass density", "setting": "313.15 K, m1 = 0.2", "result": "1001.85 ± 0.28", "unit": "kg/m3"}, {"measurement": "mass density", "setting": "313.15 K, m1 = 0.4", "result": "1011.07 ± 0.41", "unit": "kg/m3"}, {"measurement": "mass density", "setting": "313.15 K, m1 = 0.6", "result": "1019.85 ± 0.56", "unit": "kg/m3"}, {"measurement": "mass density", "setting": "313.15 K, m1 = 0.8", "result": "1028.28 ± 0.69", "unit": "kg/m3"}, {"measurement": "mass density", "setting": "313.15 K, m1 = 1", "result": "1036.38 ± 0.81", "unit": "kg/m3"}, {"measurement": "viscosity", "setting": "323.15 K, m1 = 0.2", "result": "0.582 ± 0.007", "unit": "mPa·s"}, {"measurement": "viscosity", "setting": "323.15 K, m1 = 0.4", "result": "0.617 ± 0.008", "unit": "mPa·s"}, {"measurement": "viscosity", "setting": "323.15 K, m1 = 0.6", "result": "0.657 ± 0.008", "unit": "mPa·s"}, {"measurement": "viscosity", "setting": "323.15 K, m1 = 0.8", "result": "0.701 ± 0.009", "unit": "mPa·s"}, {"measurement": "viscosity", "setting": "323.15 K, m1 = 1", "result": "0.741 ± 0.01", "unit": "mPa·s"}, {"measurement": "mass density", "setting": "323.15 K, m1 = 0.2", "result": "997.56 ± 0.27", "unit": "kg/m3"}, {"measurement": "mass density", "setting": "323.15 K, m1 = 0.4", "result": "1006.6 ± 0.41", "unit": "kg/m3"}, {"measurement": "mass density", "setting": "323.15 K, m1 = 0.6", "result": "1015.35 ± 0.55", "unit": "kg/m3"}, {"measurement": "mass density", "setting": "323.15 K, m1 = 0.8", "result": "1023.7 ± 0.68", "unit": "kg/m3"}, {"measurement": "mass density", "setting": "323.15 K, m1 = 1", "result": "1031.65 ± 0.82", "unit": "kg/m3"}]}
